Test results: PubChem BioAssay AID342 (DTP/NCI, 2004)
“And” between values parts separate entries of the source, which are not always exact repeats. Equal entries are not always repeated.

System: Swiss mice, Sarcoma 180 sc, mean tumor weight T/C
Experiment: NCI In Vivo Anticancer Drug Screen. Data for tumor model Sarcoma 180 (subcutaneous) in Swiss mice
Details: endpoint: mean tumor weight, higher = larger tumour
Protocol: The antitumor activity of compounds was measured in mice bearing transplantable tumors. Survival or tumor size were measured and the results are expressed as the measurement made in the treated group (T) divided by the measurement made in the vehicle treated control group (C). The tumor model used in this assay is Sarcoma 180 (subcutaneous) in Swiss mice

[1] = dose: 10.0 mg/kg/injection, schedule: Q01DX007 (ip), vehicle: water

With `CCCCCCCCCCOP(N)(=O)OCCCCCCCCCC` the T/C (dose: 27.75 mg/kg/injection, schedule: Q#A X014 (ip), vehicle: carboxymethylcellulose (CMC)) was 56 % of control and 64 % of control and the T/C (dose: 41.5 mg/kg/injection, schedule: Q#A X014 (ip), vehicle: carboxymethylcellulose (CMC)) was 60 % of control and 63 % of control.
With `c1ccc(CNc2ncnc3[nH]ncc23)cc1` the T/C (dose: 8.0 mg/kg/injection, schedule: Q01DX007 (ip), vehicle: carboxymethylcellulose (CMC)) was 87 % of control, the T/C (dose: 16.0 mg/kg/injection, schedule: Q01DX007 (ip), vehicle: carboxymethylcellulose (CMC)) was 106 % of control and the T/C (dose: 31.0 mg/kg/injection, schedule: Q01DX007 (ip), vehicle: carboxymethylcellulose (CMC)) was 62 % of control.
In the case of `O=C(CCCl)N1CCN(C(=O)CCCl)CC1`, the T/C (dose: 110.0 mg/kg/injection, schedule: Q#A X014 (ip), vehicle: methylcellulose (MC)) is reported as 66 % of control and the T/C (dose: 167.5 mg/kg/injection, schedule: Q#A X014 (ip), vehicle: methylcellulose (MC)) is reported as 54 % of control.
In the case of `COc1cc2c3c(c4cc(OC)c(OC)cc4c2cc1OC)CN1CCC[C@H]1C3`, the T/C [1] is reported as 70 % of control, the T/C (dose: 12.0 mg/kg/injection, schedule: Q01DX007 (ip), vehicle: water) is reported as 81 % of control and the T/C (dose: 18.0 mg/kg/injection, schedule: Q01DX007 (ip), vehicle: water) is reported as 42 % of control.
With `CN1CCC=C(C(=O)O)C1` the T/C [1] was 78 % of control, the T/C (dose: 50.0 mg/kg/injection, schedule: Q01DX007 (ip), vehicle: water) was 75 % of control and the T/C (dose: 100.0 mg/kg/injection, schedule: Q01DX007 (ip), vehicle: water) was 83 % of control.
For `N#Cc1ccc(S(N)(=O)=O)cc1`, the T/C (dose: 30.0 mg/kg/injection, schedule: Q01DX007 (ip), vehicle: alkali diluted with saline) was 76 % of control, the T/C (dose: 33.0 mg/kg/injection, schedule: Q01DX007 (ip), vehicle: other) was 70 % of control and the T/C (dose: 44.0 mg/kg/injection, schedule: Q01DX007 (ip), vehicle: alkali diluted with saline) was 71 % of control. The T/C (dose: 49.0 mg/kg/injection, schedule: Q01DX007 (ip), vehicle: other) was 68 % of control, the T/C (dose: 66.0 mg/kg/injection, schedule: Q01DX007 (ip), vehicle: alkali diluted with saline) was 54 % of control and the T/C (dose: 74.0 mg/kg/injection, schedule: Q01DX007 (ip), vehicle: other) was 59 % of control. The T/C (dose: 100.0 mg/kg/injection, schedule: Q01DX007 (ip), vehicle: alkali diluted with saline) was 39 % of control, the T/C (dose: 111.0 mg/kg/injection, schedule: Q01DX007 (ip), vehicle: other) was 45 % of control and 60 % of control and the T/C (dose: 166.0 mg/kg/injection, schedule: Q01DX007 (ip), vehicle: other) was 34 % of control. The T/C (dose: 250.0 mg/kg/injection, schedule: Q01DX007 (ip), vehicle: other) was 13 % of control.
With `COc1ccc(-c2ccc(OC)c(OC)c2OC)c(N)c1` the T/C (dose: 65.0 mg/kg/injection, schedule: Q01DX007 (ip), vehicle: methylcellulose (MC)) was 98 % of control, the T/C (dose: 125.0 mg/kg/injection, schedule: Q01DX007 (ip), vehicle: methylcellulose (MC)) was 97 % of control and the T/C (dose: 250.0 mg/kg/injection, schedule: Q01DX007 (ip), vehicle: methylcellulose (MC)) was 87 % of control. The T/C (dose: 500.0 mg/kg/injection, schedule: Q01DX007 (ip), vehicle: methylcellulose (MC)) was 63 % of control, the T/C (dose: 625.0 mg/kg/injection, schedule: Q01DX007 (ip), vehicle: methylcellulose (MC)) was 58 % of control and the T/C (dose: 750.0 mg/kg/injection, schedule: Q01DX007 (ip), vehicle: methylcellulose (MC)) was 86 % of control.
For `CCOC(=O)CCCc1ccc(N/N=N/c2nc[nH]c2C(N)=O)cc1`, the T/C (dose: 46.0 mg/kg/injection, schedule: Q01DX007 (ip), vehicle: carboxymethylcellulose (CMC)) was 79 % of control and 80 % of control, the T/C (dose: 187.0 mg/kg/injection, schedule: Q01DX007 (ip), vehicle: carboxymethylcellulose (CMC)) was 46 % of control and the T/C (dose: 250.0 mg/kg/injection, schedule: Q01DX007 (ip), vehicle: carboxymethylcellulose (CMC)) was 39 % of control.
With `COc1ccc2c(c1)CC[C@@H]1[C@@H]2CC[C@@]2(C)[C@H]1CC[C@@]2(O)C(F)=C(F)F` the T/C (dose: 33.0 mg/kg/injection, schedule: Q01DX007 (sc), vehicle: steriod suspending solution) was 52 % of control, the T/C (dose: 50.0 mg/kg/injection, schedule: Q01DX007 (sc), vehicle: steriod suspending solution) was 46 % of control and the T/C (dose: 75.0 mg/kg/injection, schedule: Q01DX007 (sc), vehicle: steriod suspending solution) was 44 % of control. The T/C (dose: 111.0 mg/kg/injection, schedule: Q01DX007 (sc), vehicle: steriod suspending solution) was 45 % of control, the T/C (dose: 167.0 mg/kg/injection, schedule: Q01DX007 (sc), vehicle: steriod suspending solution) was 37 % of control and the T/C (dose: 250.0 mg/kg/injection, schedule: Q01DX007 (sc), vehicle: steriod suspending solution) was 50 % of control. For the same molecule, the T/C (dose: 375.0 mg/kg/injection, schedule: Q01DX007 (sc), vehicle: steriod suspending solution) was 55 % of control.
`CN(C)Cc1c[nH]c2ccccc12` was tested, and the T/C (dose: 62.5 mg/kg/injection, schedule: Q01DX007 (ip), vehicle: carboxymethylcellulose (CMC)) was 69 % of control.
With `CC(=O)[C@H]1CC[C@H]2[C@@H]3C[C@H](F)C4=CC(=O)CC[C@]4(C)[C@@]3(F)[C@@H](O)C[C@]12C` the T/C (dose: 25.0 mg/kg/injection, schedule: Q01DX007 (sc), vehicle: steriod suspending solution) was 65 % of control, the T/C (dose: 37.0 mg/kg/injection, schedule: Q01DX007 (sc), vehicle: steriod suspending solution) was 49 % of control and the T/C (dose: 282.0 mg/kg/injection, schedule: Q01DX007 (sc), vehicle: steriod suspending solution) was 41 % of control. The T/C (dose: 423.0 mg/kg/injection, schedule: Q01DX007 (sc), vehicle: steriod suspending solution) was 36 % of control.
`O=S(=O)(OCCCl)OCCCl` was tested, and the T/C (dose: 31.2 mg/kg/injection, schedule: Q01DX007 (ip), vehicle: other) was 54 % of control and the T/C (dose: 62.5 mg/kg/injection, schedule: Q01DX007 (ip), vehicle: other) was 66 % of control.
`CN(C)[C@@H]1C(=O)C(C(=O)NCc2nc3[nH]cnc(=S)c3[nH]2)=C(O)[C@@]2(O)C(=O)C3=C(O)c4c(O)cccc4[C@@](C)(O)[C@H]3C[C@@H]12` was tested, and the T/C (dose: 14.0 mg/kg/injection, schedule: Q01DX007 (ip), vehicle: carboxymethylcellulose (CMC)) was 71 % of control, the T/C (dose: 28.0 mg/kg/injection, schedule: Q01DX007 (ip), vehicle: carboxymethylcellulose (CMC)) was 58 % of control and the T/C (dose: 56.0 mg/kg/injection, schedule: Q01DX007 (ip), vehicle: carboxymethylcellulose (CMC)) was 54 % of control and 62 % of control. The T/C (dose: 224.0 mg/kg/injection, schedule: Q01DX007 (ip), vehicle: carboxymethylcellulose (CMC)) was 29 % of control.
For `CCCCN(C)N=Nc1ccc(CCCC(=O)OCC)cc1`, the T/C (dose: 125.0 mg/kg/injection, schedule: Q01DX007 (ip), vehicle: saline) was 62 % of control and the T/C (dose: 200.0 mg/kg/injection, schedule: Q01DX007 (ip), vehicle: saline) was 40 % of control.
For `O=C1Cc2ccccc2C(=O)N1`, the T/C (dose: 15.0 mg/kg/injection, schedule: Q#A X014 (ip), vehicle: carboxymethylcellulose (CMC)) was 84 % of control and the T/C (dose: 30.0 mg/kg/injection, schedule: Q#A X014 (ip), vehicle: carboxymethylcellulose (CMC)) was 79 % of control.
With `O=[N+]([O-])c1ccc2c(N=Nc3c(O)ccc4ccccc34)c(O)cc(S(=O)(=O)O)c2c1` the T/C (dose: 65.0 mg/kg/injection, schedule: Q01DX007 (ip), vehicle: saline) was 70 % of control, the T/C (dose: 95.0 mg/kg/injection, schedule: Q01DX007 (ip), vehicle: saline) was 82 % of control and the T/C (dose: 145.0 mg/kg/injection, schedule: Q01DX007 (ip), vehicle: saline) was 66 % of control. The T/C (dose: 330.0 mg/kg/injection, schedule: Q01DX007 (ip), vehicle: saline) was 49 % of control.
With `C[C@@H](N)[C@@H](O)c1ccccc1` the T/C (dose: 3.13 mg/kg/injection, schedule: Q01DX007 (ip), vehicle: saline) was 89 % of control, the T/C (dose: 6.25 mg/kg/injection, schedule: Q01DX007 (ip), vehicle: saline) was 91 % of control and the T/C (dose: 12.5 mg/kg/injection, schedule: Q01DX007 (ip), vehicle: saline) was 51 % of control. For the same molecule, the T/C (dose: 25.0 mg/kg/injection, schedule: Q01DX007 (ip), vehicle: saline) was 52 % of control.
With `CN1Cc2c(ccc3c2OCO3)[C@@H]2[C@H](O)Cc3cc4c(cc3[C@@H]21)OCO4` the T/C (dose: 150.0 mg/kg/injection, schedule: Q01DX007 (ip), vehicle: carboxymethylcellulose (CMC)) was 93 % of control.
